From paper PMC7377376, “Drug targeting CYP2E1 for the treatment of early-stage alcoholic steatohepatitis” (PLoS ONE, 2020)

Experiments:
[1] = target: T1, human cytochrome P450 2E1 (Homo sapiens, UniProt P05181); test: Steady-state p-nitrophenol oxidation, CYP2E1 inhibition in SUPERSOMES; type: biochemical
T1 construct: purchased BD Biosciences
Procedure: Initial velocities of the oxidation of p-nitrophenol (p-NP) to p-nitrocatechol by human cytochrome P450 2E1 were determined by measuring the absorption at 535 nm or 546 nm to determine product formation as described before.
Alternatively, 100 mM HEPES pH 7.6 was additionally used for the enzyme kinetic measurements. A final concentration of either 50 nM enzyme in form of SUPERSOMES™ from BD Biosciences or microsomes in case of cell culture experiments was added. Reaction was initiated by adding 500 μM (enzyme kinetic measurements) or 0.1 mM (cell culture experiments) NADPH after preincubation at 37° C and stopped by adding 20% trichloroacetic acid (TCA) after 30 minutes to ensure linearity of product formation. The protein concentration for the microsomal fraction was determined by Bradford assay to calculate the results expressed as units of specific activity defined as the amount of enzyme that consumes 1 μmol/L of NADPH per hour per microgram of protein. Inhibitor stock solutions were prepared in 0.1% DMSO and diluted to a final DMSO concentration of 0.003% in the reaction mixture at most to avoid enzyme inhibition by this solvent. Inhibitory constants (Ki) were calculated by non-linear fitting of initial velocities. Maximum inhibition could not be achieved since final inhibitor concentrations were limited by DMSO.
Supplementary file pone.0235990.s002.tif: S2 Fig CYP2E1 inhibition by data base inhibitors. To ascertain whether an imidazole containing compound is already commercially available and better suited for development as a drug can-didate, we performed a large virtual library screening of the ZINK database. We found 14,738 hits. The 5,261 commercially available compounds could be classified as 4,710 synthetic and 551 natural molecules. After docking and final scoring process, the seven best synthetic and the three best natural candidates were purchased and tested in vitro for their potential to inhibit CYP2E1 activity. Different concentrations of these compounds dissolved in DMSO were added to 110 μM p-Nitrophenol in 100 mM HEPES buffer pH 7.6 and SUPERSOMES™ with 50 nM human CYP 2E1 to calculate relative activity values. […] 20 μM corresponds to a DMSO volume of 0.02% (v/v). (TIF) Click here for additional data file.

ethanol-fed Wistar rats [2] = test: Liver and serum lipid parameters of ethanol-fed rats; type: in vivo, rat; settings: for liver cholesterol decrease compared to disease group / reduction of ethanol effect on hepatic cholesterol / reduction of ethanol effect on hepatic triglycerides / liver phospholipids decrease compared to disease group / liver triglycerides decrease compared to disease group / reduction of ethanol effect on hepatic phospholipids: liver; for reduction of ethanol effect on hepatic triglycerides: average over 0.4/4/40 mg/kg b.w. (UDCA 40 mg/kg), oral, 10 weeks; for liver phospholipids decrease compared to disease group / liver triglycerides decrease compared to disease group / reduction of ethanol effect on hepatic phospholipids / reduction of ethanol effect on serum triglycerides / serum triglycerides decrease compared to disease group: average over doses (UDCA 40 mg/kg)
Text: A total of 68 female Wistar rats (Institute of Pharmacology and Biochemistry Breeding House, Minsk, Belarus) aged 80–90 days and weighting 180–200 g at the beginning of the experiments were used in the study. Each rat group (n = 6–8) was housed in a separate cage and had free access to the liquid diet during the full study period. Prior to the study, the animals were habituated for seven days to the cage conditions and experimental handling. The rats were maintained in a controlled experimental environment (20–25°C, 40–50% humidity, 12 h light per day, room with a 12-h light/dark cycle).
Rats were divided into ten groups characterized by the diet and the test compounds (S1 Table). Group 1 is the first control group in which a normal solid standard diet was fed for 12 weeks. All other groups received the liquid Lieber-DeCarli (LDC) diet (S2 Table), which combines food and drink in a liquid manner. It was prepared by ssniff Spezialdiäten GmbH, Soest. The addition of maltodextrin to this diet should compensate the pure caloric effect of ethanol, whereby 1.77 g maltodextrin replaces 1 g ethanol. The calorie value of both the control and ethanol diets was the same: 35% calories from fat, 11% from carbohydrates, 18% from protein and 36% from ethanol.
(§1) In the first two weeks rats of all groups–with the exception of group 1 –were fed with LDC diet plus maltodextrin in an appropriate amount to adapt the animals to the liquid diet. Group 2 is the second control group in which the isocaloric diet was administered for further 10 weeks until the end of the experiment. […] The test compounds I-ol, I-an and UDCA were dissolved in a 0.8% aqueous HPMC gel to obtain the appropriate concentrations: (1) I-ol with 0.4, 4 and 40 mg/kg b. w. (2) I-an with 0.4, 4 and 40 mg/kg b. w. (3) UDCA with 40 mg/kg b. w. Rats of group 2 and 3 received only HPMC as a placebo. The LDC diets were fed ad libitum and their intake per cage was controlled daily. The corresponding bottles were stored in the cages from 08:00 a. m. until 06:00 p. m. and replaced by drinking water bottles overnight until 08:00 a. m. in the next morning. Every day at the same time, the test compounds or only HPMC were administered intragastrically by oral gavage with an administration volume of 2 ml/kg b. w. After ten weeks of treatment, the rats were anesthetized with an intraperitoneal injection of a 5% pentobarbital solution and then killed by aorta scarification. Their livers were dissected and liver pieces frozen and stored in liquid nitrogen. A part of the liver was fixed for histological investigations. Blood was collected before sacrifice, centrifuged for serum preparation and finally stored in liquid nitrogen.
The serum marker enzyme activities, alanine aminotransferase (ALT), aspartate aminotransferase (AST), alkaline phosphatase (AP) and gamma-glutamyltransferase (γ-GT) as well as triglycerides and bilirubin were measured according to manufacturer’s instructions using standard commercial kits from Lachema (PLIVA-Lachema Diagnostika, Czech Republic). Serum concentrations of leptin, adiponectin and TNF-alpha were analyzed using commercial ELISA test kits: BioCat GmbH (Heidelberg, German) for adiponectin and TNF-alpha, BioVendor Laboratory Medicine Inc. (Brno, Czech Republic) for leptin. Insulin serum concentration was determined by radioimmunoassay using the commercially available kit RIO-insulin-PG-J125 (IBOCH, Minsk, Belarus). Glucose serum concentration was determined by the Accu-Check Active blood glucose testing system from Roche-Diagnostics GmbH (Mannheim, Germany).
Lipids were extracted with a chloroform: methanol mixture (2:1 v/v). Neutral lipids and phospholipids were separated into classes by thin-layer chromatography (TLC). Lipid fractions (triglycerides, cholesterol and its fractions) were measured in extracts from scraped spots by routine methods using the appropriate commercial kits. […]

ethanol-fed Wistar rats [3] = test: Liver histopathology of ethanol-fed rats; type: in vivo, rat; settings: I-ol, I-an in their higher concentrations; UDCA 40 mg/kg b.w.; H.E. staining
Procedure: as §1
Liver samples were selected randomly, fixed in Bouin`s solution and embedded in paraffin wax. Histological sections were prepared and stained with haematoxylin and eosin. Other liver samples were fixed in a solution containing formaldehyde, paraformaldehyde and glutaraldehyde with a subsequent post-fixation in 1% osmium containing phosphate buffer pH 7.4 for further analysis. Liver tissue was embedded in a mixture of butyl-methyl-metacrylates. Semifine sections of 0.5–1.0 μm were stained with Asur II, methylen blue and basic fuxine.

T1 sequence (P05181 whole entry): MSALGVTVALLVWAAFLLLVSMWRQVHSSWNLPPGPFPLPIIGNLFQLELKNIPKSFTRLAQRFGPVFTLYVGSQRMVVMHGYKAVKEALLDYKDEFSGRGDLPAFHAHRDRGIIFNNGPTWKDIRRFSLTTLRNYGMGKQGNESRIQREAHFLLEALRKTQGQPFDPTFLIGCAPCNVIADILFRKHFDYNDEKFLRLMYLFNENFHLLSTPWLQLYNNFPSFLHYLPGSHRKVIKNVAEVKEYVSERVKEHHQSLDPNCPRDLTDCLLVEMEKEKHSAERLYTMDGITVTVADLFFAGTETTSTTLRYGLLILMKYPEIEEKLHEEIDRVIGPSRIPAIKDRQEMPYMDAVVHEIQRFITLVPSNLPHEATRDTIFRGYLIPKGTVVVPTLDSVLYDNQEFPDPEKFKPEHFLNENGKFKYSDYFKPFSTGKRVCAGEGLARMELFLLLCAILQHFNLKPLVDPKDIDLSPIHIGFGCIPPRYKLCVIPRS

Row | SMILES | Ki value (in words) [1] | inhibitory effect on CYP2E1 (in words) ([1]; human CYP2E1 SUPERSOMES) | liver cholesterol decrease compared to disease group (ethanol-fed Wistar rats [2]; UDCA 40 mg/kg) | reduction of ethanol effect on hepatic cholesterol (ethanol-fed Wistar rats [2]; UDCA 40 mg/kg) | reduction of ethanol effect on hepatic triglycerides (ethanol-fed Wistar rats [2]) | liver phospholipids decrease compared to disease group (ethanol-fed Wistar rats [2]) | liver triglycerides decrease compared to disease group (ethanol-fed Wistar rats [2]) | reduction of ethanol effect on hepatic phospholipids (ethanol-fed Wistar rats [2]) | reduction of ethanol effect on serum LDL cholesterol (ethanol-fed Wistar rats [2]; serum, UDCA 40 mg/kg) | reduction of ethanol effect on serum VLDL (ethanol-fed Wistar rats [2]; serum, UDCA 40 mg/kg) | serum LDL cholesterol decrease compared to disease group (ethanol-fed Wistar rats [2]; serum, average over doses) | serum VLDL decrease compared to disease group (ethanol-fed Wistar rats [2]; serum, average over doses) | reduction of ethanol effect on serum triglycerides (ethanol-fed Wistar rats [2]; serum) | serum triglycerides decrease compared to disease group (ethanol-fed Wistar rats [2]; serum) | liver morphology (histopathology, in words) (ethanol-fed Wistar rats [3]) | reduction of ethanol effect on serum LDL cholesterol (ethanol-fed Wistar rats [2]; serum, lowest concentration)
1 | CCCCCCCCCCCCn1ccnc1 [I-an, 1-Imidazolyldodecane] | nanomolar range | lower affinity | 11% | 82% | 73% | 20% | 41% | completely eliminated | 70% | 59% | 24% | 18% | 83% | 41% | almost complete restoration of the physiological liver morphology | 
2 | OCCCCCCCCCCCCn1ccnc1 [I-ol] | nanomolar range |  | no influence | no influence | 71% | 13% | 40% | 65% |  | 55% |  | 17% | 91% | 44% | almost complete restoration of the physiological liver morphology | 61%
